In patent US10759774B2, “Inhibitors of hepatitis B virus targeting capsid assembly” (THE CURATORS OF THE UNIVERSITY OF MISSOURI, priority 2017, dated 2020):

Test system: not listed separately
Assay: Cytotoxicity, Cell Proliferation Kit II (XTT) (Table 2)
Format: cell-based
Settings: human

Structure (SMILES) | CC50
Cc1cc(NC(=O)c2sc(N)c(C#N)c2C)ccc1F [ZW-1044, 5-Amino-4-cyano-N-(4-fluoro-3-methylphenyl)-3-methylthiophene-2-carboxamide] | 96.1 ± 10.1 µM
Cc1cc(NC(=O)c2c(N)sc(C(=O)Nc3ccccc3)c2C)ccc1F [ZW-934, 5-Amino-N4-(4-fluoro-3-methylphenyl)-3-methyl-N2-phenylthiophene-2,4-dicarboxamide] | 39.6 ± 2.6 µM
Cc1c(C(=O)Nc2ccc(F)c(F)c2)sc(N)c1C(=O)Nc1ccccc1 [ZW-892, 5-Amino-N2-(3,4-difluorophenyl)-3-methyl-N4-phenylthiophene-2,4-dicarboxamide] | 26.2 ± 2.7 µM
Cc1c(C(=O)Nc2cc(F)c(F)c(Cl)c2)sc(N)c1C(N)=O [ZW-1034, 5-Amino-N2-(3-chloro-4,5-difluorophenyl)-3-methylthiophene-2,4-dicarboxamide] | 71.8 ± 4.1 µM
Cc1c(C(=O)Nc2ccc(Cl)c(C(F)(F)F)c2)sc(N)c1C(N)=O [ZW-1067, 5-Amino-N2-(4-chloro-3-(trifluoromethyl)phenyl)-3-methylthiophene-2,4-dicarboxamide] | 72.1 ± 6.4 µM
Cc1cc(NC(=O)c2sc(N)c(C(N)=O)c2C)ccc1Br [ZW-1068, 5-Amino-N2-(4-bromo-3-methylphenyl)-3-methylthiophene-2,4-dicarboxamide] | 107 ± 7.2 µM
Cc1c(C(=O)Nc2ccccc2)sc(NC(=O)c2cc(Cl)cc(Cl)c2)c1C(N)=O [ZW-1040, 5-(3,5-Dichlorobenzamido)-3-methyl-N2-phenylthiophene-2,4-dicarboxamide] | 49.5 ± 0.1 µM
CCOC(=O)c1c(N)sc(C(=O)Nc2ccccc2)c1C [ZW-1045, Ethyl 2-amino-4-methyl-5-(phenylcarbamoyl)thiophene-3-carboxylate] | 75.9 ± 1.8 µM
Cc1c(C(=O)Nc2ccccc2)sc(N)c1C(=O)Nc1ccc(F)c(F)c1 [ZW-933, 5-Amino-N4-(3,4-difluorophenyl)-3-methyl-N2-phenylthiophene-2,4-dicarboxamide] | 40.5 ± 5.1 µM

Same assay, conditions: human, HepG2 cells

Structure (SMILES) | CC50
Cc1c(C(=O)Nc2ccc(F)c(C#N)c2)sc(N)c1C(N)=O [ZW-1039, 5-Amino-N2-(3-cyano-4-fluorophenyl)-3-methylthiophene-2,4-dicarboxamide] | > 100 µM
Cc1c(C(=O)Nc2ccc(F)c(F)c2)sc(N)c1C(=O)Nc1ccc(F)c(F)c1 [ZW-932, 5-Amino-N2,N4-bis(3,4-difluorophenyl)-3-methylthiophene-2,4-dicarboxamide] | 17.4 ± 1.3 µM
Cc1c(C(=O)Nc2ccccc2)sc(NC(=O)c2ccsc2)c1C(N)=O [ZW-1055, 3-Methyl-N2-phenyl-5-(thiophene-3-carboxamido)thiophene-2,4-dicarboxamide] | > 100 µM
Cc1c(C(=O)Nc2ccccc2)sc(NC(=O)c2cn[nH]c2)c1C(N)=O [ZW-1052, 3-Methyl-N2-phenyl-5-(1H-pyrazole-4-carboxamido)thiophene-2,4-dicarboxamide] | > 100 µM
Cc1ccc(CC(=O)Nc2sc(C(=O)Nc3ccccc3)c(C)c2C(N)=O)cc1F [ZW-1051, 5-(2-(3-Fluoro-4-methylphenyl)acetamido)-3-methyl-N2-phenylthiophene-2,4-dicarboxamide] | > 100 µM
Cc1c(C(=O)Nc2ccc(F)c(F)c2)sc(N)c1C#N [ZW-1043, 5-Amino-4-cyano-N-(3,4-difluorophenyl)-3-methylthiophene-2-carboxamide] | > 100 µM
Cc1c(C(=O)Nc2ccc(F)c(C(F)F)c2)sc(N)c1C(N)=O [ZW-1066, 5-Amino-N2-(3-(difluoromethyl)-4-fluorophenyl)-3-methylthiophene-2,4-dicarboxamide] | > 100 µM
Cc1c(C(=O)Nc2ccccc2)sc(N)c1C(=O)Nc1ccccc1 [ZW-794, 5-Amino-3-methyl-N2,N4-diphenylthiophene-2,4-dicarboxamide] | > 100 µM
Cc1c(C(=O)Nc2ccccc2)sc(NC(=O)Cc2ccc(F)c(F)c2)c1C(N)=O [ZW-1050] | > 100 µM
Cc1c(C(=O)Nc2ccccc2)sc(NC(=O)c2ccc(S(C)(=O)=O)cc2)c1C(N)=O [ZW-1073, 3-Methyl-5-(4-(methylsulfonyl)benzamido)-N2-phenylthiophene-2,4-dicarboxamide] | > 100 µM
Cc1ccc(C(=O)Nc2sc(C(=O)Nc3ccccc3)c(C)c2C(N)=O)s1 [ZW-1056, 3-Methyl-5-(5-methylthiophene-2-carboxamido)-N2-phenylthiophene-2,4-dicarboxamide] | > 100 µM
Cc1c(C(=O)Nc2ccccc2)sc(NC(=O)c2nccs2)c1C(N)=O [ZW-1053, 3-Methyl-N2-phenyl-5-(thiazole-2-carboxamido)thiophene-2,4-dicarboxamide] | > 100 µM
Cc1c(C(=O)Nc2ccc(F)cc2)sc(N)c1C(N)=O [ZW-1037, 5-Amino-N2-(4-fluorophenyl)-3-methylthiophene-2,4-dicarboxamide] | > 100 µM
Cc1c(C(=O)Nc2ccccc2)sc(NC(=O)c2csc([N+](=O)[O-])c2)c1C(N)=O [ZW-1054, 3-Methyl-5-(5-nitrothiophene-3-carboxamido)-N2-phenylthiophene-2,4-dicarboxamide] | > 100 µM
CCOC(=O)c1c(N)sc(C(=O)Nc2ccc(F)c(C)c2)c1C [ZW-1046, Ethyl 2-amino-5-((4-fluoro-3-methylphenyl)carbamoyl)-4-methylthiophene-3-carboxylate] | > 100 µM
Cc1c(C(=O)Nc2ccc(F)c(F)c2)sc(N)c1C(N)=O [ZW-896, 5-Amino-N2-(3,4-difluorophenyl)-3-methylthiophene-2,4-dicarboxamide] | > 100 µM
Cc1c(C(=O)Nc2ccc(F)c(C(F)(F)F)c2)sc(N)c1C(N)=O [ZW-1057, 5-Amino-N2-(4-fluoro-3-(trifluoromethyl)phenyl)-3-methylthiophene-2,4-dicarboxamide] | > 100 µM

Test system: HBV
Assay: Cell-based anti-HBV activity of HF9C6 analogs (Table 2; HBV DNA in HepAD38 cells)
Settings: Hepatitis B virus
Procedure: HepAD38 cells (5×10^4) were plated in 96-well plates in tet media. The next day, cells were washed 2× with PBS, and the media was replaced with complete media (DMEM, 10% FBS) containing compounds. Fresh complete media with compounds was added again after 2 days. After 2 additional days, cells were washed with PBS, trypsinized, and pelleted by centrifugation. The cell pellet was resuspended in 200 μl PBS, and DNA was extracted and analyzed as above. For dose responses, values were plotted in GraphPad Prism 5 and analyzed with the log (inhibitor) vs. normalized response—variable slope equation.
HepAD38 cells were seeded in 96-well plates (3×10^4 cells/well) in tet media. […] After 2 days, the media was removed, and fresh media containing compounds was added. After 2 additional days, cells were washed with PBS and lysed with 10 mM Tris (pH 7.5), 1mM EDTA, 100mM NaCl, 1% NP-40 at 37° C. for 30 min. 60 μl of lysate was added to 60 μl of 1 M NaOH, 1.5 M NaCl and incubated at RT for 5 min to denature DNA. 120 μl of 1 M Tris (pH 7.4), 2 M NaCl was added. Samples were transferred to positively charged nylon membranes (Roche) using a vacuum dot blot manifold. The wells were washed with 200 μl of 20× SSC (3M NaCl, 300 mM sodium citrate), and the DNA was UV crosslinked to the membranes. […] Membranes were incubated with CDP-STAR® chemiluminescent substrate (Roche), imaged by chemiluminescence, and quantified by densitometry. Values were plotted in GraphPad Prism 5 and analyzed with the log (inhibitor) vs. normalized response—variable slope equation.

Structure (SMILES) | EC50
CCOC(=O)c1sc2[nH]c(Cc3ccccc3)nc(=O)c2c1C [ZW-772, Ethyl 2-benzyl-5-methyl-4-oxo-1,4-dihydrothieno[2,3-d]pyrimidine-6-carboxylate] | > 10 µM

Same assay, conditions: Hepatitis B virus, Table 2, cell-based, read-out: EC50

Structure (SMILES) | EC50
Cc1ccc(CC(=O)Nc2sc(C(=O)Nc3ccccc3)c(C)c2C(N)=O)cc1F [ZW-1051, 5-(2-(3-Fluoro-4-methylphenyl)acetamido)-3-methyl-N2-phenylthiophene-2,4-dicarboxamide] | > 10 µM
CCOC(=O)c1sc2[nH]c(C3CCCCC3)nc(=O)c2c1C [ZW-777, Ethyl 2-cyclohexyl-5-methyl-4-oxo-1,4-dihydrothieno[2,3-d]pyrimidine-6-carboxylate] | > 10 µM
Cc1c(C(=O)Nc2ccc(F)c(F)c2)sc(N)c1C#N [ZW-1043, 5-Amino-4-cyano-N-(3,4-difluorophenyl)-3-methylthiophene-2-carboxamide] | ~10 µM
Cc1c(C(=O)NCc2ccccc2)sc(N)c1C(N)=O [ZW-770, 5-Amino-N2-benzyl-3-methylthiophene-2,4-dicarboxamide] | ~10 µM
Cc1c(C(=O)Nc2ccccc2)sc(N)c1C(=O)NC1CCCC1 [ZW-895, 5-Amino-N4-cyclopentyl-3-methyl-N2-phenylthiophene-2,4-dicarboxamide] | > 10 µM
Cc1c(C(=O)Nc2ccccc2)sc(NC(=O)Cc2ccc(F)c(F)c2)c1C(N)=O [ZW-1050] | ~10 µM
Cc1c(C(=O)Nc2ccc(F)c(F)c2)sc(N)c1C(=O)NC1CCCC1 [ZW-894, 5-Amino-N4-cyclopentyl-N2-(3,4-difluorophenyl)-3-methylthiophene-2,4-dicarboxamide] | > 10 µM
CCOC(=O)c1sc2[nH]c(-c3ccc(C)c(F)c3)nc(=O)c2c1C [ZW-775, Ethyl 2-(3-fluoro-4-methylphenyl)-5-methyl-4-oxo-1,4-dihydrothieno[2,3-d]pyrimidine-6-carboxylate] | > 10 µM
CCOC(=O)c1sc2[nH]c(Cc3ccc(-c4ccccc4)cc3)nc(=O)c2c1C [ZW-774, Ethyl 2-([1,1′-biphenyl]-4-ylmethyl)-5-methyl-4-oxo-1,4-dihydrothieno[2,3-d]pyrimidine-6-carboxylate] | > 10 µM
Cc1ccc(NC(=O)c2sc(N)c(C(N)=O)c2C)cc1 [ZW-771, 5-Amino-3-methyl-N2-(p-tolyl)thiophene-2,4-dicarboxamide] | > 10 µM
Cc1c(C(=O)Nc2ccccc2)sc(N)c1C(=O)NCc1ccc(C(F)(F)F)cc1 [ZW-790, 5-Amino-3-methyl-N2-phenyl-N4-(4-(trifluoromethyl)benzyl)thiophene-2,4-dicarboxamide] | > 10 µM
Cc1c(C(=O)Nc2ccc(F)c(F)c2)sc(N)c1C(=O)Nc1ccc(Cl)cc1 [ZW-893, 5-Amino-N4-(4-chlorophenyl)-N2-(3,4-difluorophenyl)-3-methylthiophene-2,4-dicarboxamide] | > 10 µM
CCOC(=O)c1c(N)sc(C(=O)Nc2ccccc2)c1C [ZW-1045, Ethyl 2-amino-4-methyl-5-(phenylcarbamoyl)thiophene-3-carboxylate] | > 10 µM
COc1ccc(CNC(=O)c2c(N)sc(C(=O)Nc3ccccc3)c2C)cc1 [ZW-791, 5-Amino-N4-(4-methoxybenzyl)-3-methyl-N2-phenylthiophene-2,4-dicarboxamide] | > 10 µM
Cc1c(C(=O)Nc2ccccc2)sc(N)c1C(=O)NC1CC1 [ZW-792, 5-Amino-N4-cyclopropyl-3-methyl-N2-phenylthiophene-2,4-dicarboxamide] | > 10 µM
COc1ccc(NC(=O)c2sc(N)c(C(N)=O)c2C)cc1 [ZW-769, 5-Amino-N2-(4-methoxyphenyl)-3-methylthiophene-2,4-dicarboxamide] | ~10 µM
CCOC(=O)c1sc2[nH]c(Cc3ccc(F)cc3)nc(=O)c2c1C [ZW-776, Ethyl 2-(4-fluorobenzyl)-5-methyl-4-oxo-1,4-dihydrothieno[2,3-d]pyrimidine-6-carboxylate] | > 10 µM
CCOC(=O)c1sc2[nH]c(Cc3cc(C)cc(C)c3)nc(=O)c2c1C [ZW-773, Ethyl 2-(3,5-dimethylbenzyl)-5-methyl-4-oxo-1,4-dihydrothieno[2,3-d]pyrimidine-6-carboxylate] | > 10 µM
